Results on two compounds are retold here after patent US6979685B1, “Cycloalkyl amine compounds and uses thereof” (Cardiome Pharma Corp., priority 1999, dated 2005).

Experiment [1] relates to ECG parameters (cardiac sodium channel / potassium channel blockage). Briefly: Measurement of ECG parameters in pentobarbital anesthetized rats. In kind it is in vivo, rat. The following applies: bolus injection; for ED25 QT: dose producing a 25% increase in Q-T interval; for ED25 QRS: dose producing a 25% increase in QRS interval. How it is done: Rats weighing 200–250 gms were used in this example. Animals were anesthetized with 60 mg/kg pentobarbital i.p. The carotid artery and jugular vein were cannulated for measurement of blood pressure and drug injection, respectively. ECG was recorded by insertion of electrodes placed along the anatomical axis of the heart. All compounds were given as bolus injections.
Various ECG parameters were measured. Table 4 describes the results of the tests as ED25 (micromol/kg) which are the doses required to produce a 25% increase in the parameter measured (NE=not estimated). The increases in P—R interval and QRS interval indicate cardiac sodium channel blockage while the increase in Q-T interval indicates ancillary cardiac potassium channel blockage which is the property of a type 1a antiarrhythmic.

In experiment [2] the test system is cardiac arrhythmias in conscious rats subjected to coronary artery occlusion. The experiment is described as follows: Antiarrhythmic efficacy: arrhythmias induced by coronary artery occlusion in conscious rats. It is filed as in vivo, rat. The following applies: infusion rate which reduces the arrhythmia score to 50% of that of vehicle-treated animals. Here is the method:
Antiarrhythmic efficacy was assessed by investigating the effect of a compound on the incidence of cardiac arrhythmias in conscious rats subjected to coronary artery occlusion. Rats weighing 200–300 gms were subjected to preparative surgery and assigned to groups in a random block design. In each case, the animal was anesthetized with halothane during surgical preparation. The left femoral artery was cannulated for measurement of mean arterial blood pressure and withdrawal of blood samples. The left femoral vein was also cannulated for injection of drugs. The thoracic cavity was opened and a polyethylene occluder loosely placed around the left anterior descending coronary artery. The thoracic cavity was then closed. ECG was recorded by insertion of electrodes placed along the anatomical axis of the heart. All cannulae and electrode leads were exteriorized in the mid scapular region. […] ECG, arrhythmias, blood pressure, heart rate and mortality were monitored for 30 minutes after occlusion. Arrhythmias were recorded as ventricular tachycardia (VT) and ventricular fibrillation (VF) and scored according to Curtis, M. J. and Walker, M. J. A., Cardiovasc. […]
Occlusion is associated with increases in R-wave height and “S-T” segment elevation: and an occluded zone (measured after death by cardiogreen dye perfusion) in the range of 25%–50% of total left-ventricular weight. […]

The test system of experiment [3] is cardiac sodium channel blockage (left ventricle square wave stimulation). Briefly: Assessment of sodium channel blockage by electrical stimulation of the left ventricle in rats. In kind it is in vivo. Conditions: infusion rate eliciting a 25% increase from control; rat left ventricle stimulation. How it is done:
Rats were prepared according to the preceding procedure. Two silver stimulating electrodes were inserted through the chest wall and implanted in the left ventricle. Square wave stimulation was used to determine threshold current for capture, ventricular fibrillation threshold current, and effective refractory period (Howard, P. G. and Walker, M. J. A., Proc. West. Pharmacol. Soc. 33:123–127 (1990)). Table 5 contains ED25 values for these indices of cardiac sodium channel blockage, where the ED25 is the infusion rate in micromol/kg/minute of compound required to elicit a 25% increase from control. The increases in refractoriness indicate ancillary blockage of potassium channels. The threshold current for capture is represented by “It”. The fibrillation threshold current is represented by “VFT”. The effective refracting period is represented by “ERP”.

For the compound `Cl.c1ccc2cc(CCOC3CCCC3N3CCOCC3)ccc2c1` [compound 1, (1R,2R)/(1S,2S)-2-(4-MORPHOLINYL)-1-(2-NAPHTHALENETHOXY)CYCLOPENTANE MONOHYDROCHLORIDE], the “ED25 PR” value in experiment [1] (dose producing a 25% increase in P-R interval) was 45 µmol/kg. In experiment [1], the “ED25 QT” value came to 2.5 µmol/kg and the “ED25 QRS” value worked out at 37 µmol/kg. The ED50AA in experiment [2] stood at 1.5 µmol/kg/min. Besides, in experiment [3], the “ED25 ERP (effective refractory period)” value was found to be 2.5 µmol/kg/min, the “ED25 It (threshold current for capture)” value was found to be 3.3 µmol/kg/min and the “ED25 VFT (fibrillation threshold current)” value is 1.3 µmol/kg/min.
For `Cl.O=C1CCN(C2CCCC2OCCc2c(Cl)cccc2Cl)C1` [compound 2, (1R,2R)/(1S,2S)-2-(3-KETOPYRROLIDINYL)-1-(2,6-DICHLOROPHENETHOXY)CYCLOPENTANE MONOHYDROCHLORIDE], in experiment [1], the “ED25 QT” value was determined as 3.3 µmol/kg and the “ED25 QRS” value amounted to 9 µmol/kg. This compound also registered an ED50AA in experiment [2] of 4 µmol/kg/min. In experiment [3], the “ED25 ERP (effective refractory period)” value came out at 2.6 µmol/kg/min and the “ED25 It (threshold current for capture)” value was found to be 10 µmol/kg/min.
